Measured values: patent publication US8575337B2, “Oxazolidinone derivative having fused ring” (Research Foundation Itsuu Laboratory, priority 2008, dated 2013)
In brackets after ≈: the same amount, converted by molar mass.

Legend:
Assay in all cases: MIC determination, CLSI standard method
Format in all cases: cell-based
E. faecium SR7940 (VRE) = conditions: Enterococcus faecium, cation-adjusted Mueller Hinton Broth, inoculum about 5×10^5 CFU/mL
Protocol: (§1) The compounds of the above Examples were tested for antimicrobial activity.
(§2) Minimal inhibitory concentration (MIC: μg/ml) against different strains of bacteria was determined according to the standard method recommended by CLSI (clinical and laboratory standards institute). The samples used were prepared by dissolving the compound in DMSO at the concentration 1280 μg/mL, followed by a two fold serial dilution with DMSO. The sample was added to a bacteria suspension at the concentration of 5%, and MIC was determined. Cation-adjusted Mueller Hinton Broth was used as a culture media. The inoculation concentration was about 5×10^5 CFU/mL.

S. aureus NRS271 (LZD-R) = conditions: Staphylococcus aureus, cation-adjusted Mueller Hinton Broth, inoculum about 5×10^5 CFU/mL
Protocol: as §1, §2

S. aureus SR3637 (MRSA) = conditions: Staphylococcus aureus, cation-adjusted Mueller Hinton Broth, inoculum about 5×10^5 CFU/mL
Protocol: as §1, §2

SMILES	MIC (E. faecium SR7940 (VRE))	MIC (S. aureus NRS271 (LZD-R))	MIC (S. aureus SR3637 (MRSA))
CC(=O)NC[C@H]1CN(c2ccc(N3CCOCC3)c(F)c2)C(=O)O1 [Linezolid, (S)-n-[[3-[3-fluoro-4-(4-morpholinyl)phenyl]-2-oxo-5-oxazolidinyl]methyl]acetamide]	2 µg/mL (≈ 5.93 µM)	32 µg/mL (≈ 94.9 µM)	2 µg/mL (≈ 5.93 µM)
CC(=O)NC[C@H]1CN(c2ccc(-c3ccn4ccnc4c3)c(F)c2)C(=O)O1 [Example 18]	0.25 µg/mL (≈ 0.679 µM)	2 µg/mL (≈ 5.43 µM)	0.25 µg/mL (≈ 0.679 µM)
